Source: patent US12291501B2 (University of Florida Research Foundation, Inc., priority 2021, dated 2025)
“And” between values parts separate entries of the source, which are not always exact repeats. Identical values can stand only once. Like-named read-outs stand apart in the source and are kept apart here.

Legend:
α9 nAChR [1] = target: T1, α9 nAChR (Homo sapiens, UniProt Q9UGM1); conditions: earlier reports / Papke et al. (2022), Richter et al. (2022); cited from earlier work
T1 construct: expressed in transfected cells; host or cells: Xenopus laevis oocytes, injected with in vitro transcribed RNA
T1 sequence (Q9UGM1 26-479 limits assumed): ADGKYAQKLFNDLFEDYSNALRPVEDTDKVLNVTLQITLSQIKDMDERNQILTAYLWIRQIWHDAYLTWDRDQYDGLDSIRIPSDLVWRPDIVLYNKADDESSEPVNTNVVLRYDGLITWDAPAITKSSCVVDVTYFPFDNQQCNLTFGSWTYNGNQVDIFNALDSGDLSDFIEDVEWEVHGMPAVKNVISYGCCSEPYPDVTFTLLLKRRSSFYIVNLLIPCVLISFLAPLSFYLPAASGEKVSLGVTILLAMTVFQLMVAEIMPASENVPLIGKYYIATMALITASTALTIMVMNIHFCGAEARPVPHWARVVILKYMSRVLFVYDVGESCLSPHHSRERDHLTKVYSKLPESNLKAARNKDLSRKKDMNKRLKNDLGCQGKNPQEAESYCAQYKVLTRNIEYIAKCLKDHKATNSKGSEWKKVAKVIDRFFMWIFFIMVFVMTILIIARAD

α7 nAChR [2] = target: T2, α7 nAChR (Homo sapiens, UniProt P36544); conditions: cited from earlier work; for Agonist character at α7: earlier reports / Papke et al. (2022)
T2 construct: expressed in transfected cells; host or cells: Xenopus laevis oocytes, injected with in vitro transcribed RNA

α9α10 nAChR [3] = target: T3, α9α10 nAChR (Homo sapiens, UniProt Q9GZZ6+Q9UGM1); assay: Two-electrode voltage-clamp, agonist concentration-response, α9α10 nAChR in Xenopus oocytes; type: cell-based; conditions: for EC50 / α9α10 Imax: peak currents, ± standard error of fit; for α9α10 Imax: relative to ACh (Imax = 1)
T3 construct: expressed in transfected cells; host or cells: Xenopus laevis oocytes, injected with in vitro transcribed RNA
T3 sequence (Q9UGM1 26-479 limits assumed): as above
T3 sequence (Q9GZZ6 25-450): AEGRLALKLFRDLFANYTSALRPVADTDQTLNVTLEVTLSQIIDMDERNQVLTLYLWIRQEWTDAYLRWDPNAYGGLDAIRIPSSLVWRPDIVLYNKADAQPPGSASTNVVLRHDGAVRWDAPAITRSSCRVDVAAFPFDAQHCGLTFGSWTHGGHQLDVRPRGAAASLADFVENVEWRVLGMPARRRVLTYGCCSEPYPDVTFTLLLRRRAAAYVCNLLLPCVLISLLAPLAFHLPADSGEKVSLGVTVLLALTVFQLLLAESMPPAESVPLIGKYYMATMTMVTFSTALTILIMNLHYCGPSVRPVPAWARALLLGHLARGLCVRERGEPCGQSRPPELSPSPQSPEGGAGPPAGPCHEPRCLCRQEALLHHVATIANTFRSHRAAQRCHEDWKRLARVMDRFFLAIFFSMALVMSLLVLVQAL
Text: (§1) Electrophysiology: Xenopus oocytes were microinjected with RNAs to produce functional nAChR which were characterized by two-electrode voltage-clamp measurements. FIGS. 5A-7D present concentration-response curves for the new compounds evaluated with α7, α9, and α9α10 receptors. Table 1 presents the values for Imax and EC50 with these receptors and Table 2 summarizes inhibition data for the compounds with heteromeric nAChR.
(§2) Molecular Biology: Plasmid DNAs encoding the human α7 and heteromeric nAChR were obtained from Jon Lindstrom (University of Pennsylvania, Philadelphia, PA). Mouse muscle subunit clones were obtained from Jim Boulter (Salk Institute, La Jolla CA) and Paul Gardner (Dartmouth, Hanover NH). The human resistance-to-cholinesterase 3 ([…]) clone was obtained from Millet Treinin (Hebrew University, Jerusalem, Israel) and RNA co-injected with α7 to improve the level and speed of receptor expression without affecting their pharmacological properties. Plasmid DNA encoding the human α10 nAChR was obtained from J. Michael McIntosh. Plasmid DNA encoding the human α9 nAChR and the human receptor-associated protein of the synapse (RAPSYN) with codon optimization for expression in Xenopus laevis were obtained from Katrin Richter. RAPSYN RNA was co-injected with the α9 and α10 to improve expression (Richter et al., (2022) Front. Cell Neurosci. 16: 779081). After linearization and purification of the plasmid DNAs, RNAs were prepared using the mMessage mMachine in vitro RNA transcription kit (Ambion, Austin, TX). Frogs were maintained in the Animal Care Service facility of the University of Florida, and all procedures were approved by the University of Florida Institutional Animal Care and Use Committee (approval number 202002669). In brief, the animals were first anesthetized for 15-20 min in 1.5 l frog tank water containing 1 g of MS-222 buffered with sodium bicarbonate. Oocytes were obtained surgically from mature female Xenopus laevis (Nasco, Ft. Atkinson WI, USA) and treated with 1.4 mg/ml type 1 collagenase (Worthington Biochemicals, Freehold NJ, USA) for 2-4 h at rt in Ca2+-free Barth's solution (88 mM NaCl, 1 mM KCl, 2.38 mM NaHCO3, 0.82 mM MgSO4, 15 mM HEPES, and 12 mg/l tetracycline, pH 7.6) to remove the ovarian tissue and the follicular layers. Stage V oocytes were injected with 4-6 ng CHRNA7 RNA and 2-3 ng RIC3 RNA (2:1 ratio) in 50 nl water, or with 12 ng CHRNA9 RNA and 3 ng RAPSN RNA, or along with 12 ng CHRNA10 RNA in 50 nl water. Oocytes were maintained in Barth's solution containing 0.32 mM Ca(NO3)2 and 0.41 mM CaCl2, and recordings were conducted 2-20 days after injection.
(§3) Electrophysiology: Two-electrode voltage-clamp experiments were conducted using OpusXpress 6000A (Molecular Devices, Union City CA, USA). Both the voltage and current electrodes were filled with 3 M KCl. Oocytes were voltage-clamped at −60 mV at rt. The oocytes were perfused with Ringer's solution (115 mM NaCl, 2.5 mM KCl, 1.8 mM CaCl2, 10 mM HEPES, 1 μM atropine, pH 7.2) at 2 ml/min. […] Drug applications were 12 s in duration followed by 181 s washout periods.
(§4) The responses were calculated as both peak-current amplitudes and net charge. Data were collected at 50 Hz, filtered at 20 Hz, and analyzed by Clampfit (Molecular Devices) and Excel (Microsoft, Redmond, WA, United States). Data are expressed as means±SEM from at least five oocytes for each experiment and plotted with Kaleidagraph 4.5.2 (Abelbeck Software, Reading, PA, United States). Each episode of data acquisition was a total of 210 s and included an initial 30 s period used to define the baseline for the drug-evoked responses. After 30 s, drugs were applied, and the following 120 s were defined as the drug response period for analysis. […] The values for the curve fits were generated using the Levenberg-Marquardt algorithm to obtain the best Chi-Square fit to the Hill equation using the Kaleidagraph 4.5.2 plotting program. […]

α3β4 nAChR = target: T4, α3β4 nAChR (Homo sapiens, UniProt P30926+P32297); assay: Inhibition of control ACh responses by co-application, α3β4 nAChR in oocytes; type: cell-based; conditions: 3 μM compound co-applied with ACh; fraction of control ACh response
T4 construct: expressed in transfected cells; host or cells: Xenopus laevis oocytes
T4 sequence (P32297 32-505): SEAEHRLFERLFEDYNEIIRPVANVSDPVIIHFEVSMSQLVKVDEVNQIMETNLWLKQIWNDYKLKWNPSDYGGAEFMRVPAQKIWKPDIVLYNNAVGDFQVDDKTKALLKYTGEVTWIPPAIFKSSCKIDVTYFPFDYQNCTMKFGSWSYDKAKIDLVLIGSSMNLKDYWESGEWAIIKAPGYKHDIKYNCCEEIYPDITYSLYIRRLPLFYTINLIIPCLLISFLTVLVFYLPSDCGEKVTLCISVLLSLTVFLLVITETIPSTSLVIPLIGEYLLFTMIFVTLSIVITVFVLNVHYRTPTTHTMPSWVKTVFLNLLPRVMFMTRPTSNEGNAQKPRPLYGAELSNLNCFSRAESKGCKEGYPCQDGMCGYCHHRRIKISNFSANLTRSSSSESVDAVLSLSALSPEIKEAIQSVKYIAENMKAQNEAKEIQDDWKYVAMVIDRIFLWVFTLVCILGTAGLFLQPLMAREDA
T4 sequence (P30926 22-498): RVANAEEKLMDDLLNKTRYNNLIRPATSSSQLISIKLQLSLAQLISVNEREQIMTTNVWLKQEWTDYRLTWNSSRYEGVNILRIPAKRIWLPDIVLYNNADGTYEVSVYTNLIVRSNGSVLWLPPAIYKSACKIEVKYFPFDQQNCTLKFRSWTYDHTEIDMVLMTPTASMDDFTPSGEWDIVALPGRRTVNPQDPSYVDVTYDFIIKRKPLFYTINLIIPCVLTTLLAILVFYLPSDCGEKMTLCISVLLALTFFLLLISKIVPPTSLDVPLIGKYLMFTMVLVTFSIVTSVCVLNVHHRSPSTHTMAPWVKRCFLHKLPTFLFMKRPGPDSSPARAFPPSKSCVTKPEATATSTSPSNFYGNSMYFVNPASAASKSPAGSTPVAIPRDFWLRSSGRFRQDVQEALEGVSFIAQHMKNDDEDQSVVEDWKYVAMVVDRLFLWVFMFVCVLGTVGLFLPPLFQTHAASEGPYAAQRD
Experimental: (§5) Initial profiling against heteromeric receptors: The test compounds for their ability to activate or inhibit other nAChR subtypes were evaluated. Agonist activity was evaluated by applying the compounds at 100 or 30 μM to human α4β2 and α3β4 as well as to mouse muscle α1β1εδ nAChR expressed in Xenopus oocytes. […] The inhibitory activity was generally low (Table 3).
as §2, §3
(§6) The responses were calculated as both peak-current amplitudes and net charge. Data were collected at 50 Hz, filtered at 20 Hz, and analyzed by Clampfit (Molecular Devices) and Excel (Microsoft, Redmond, WA, United States). Data are expressed as means±SEM from at least five oocytes for each experiment and plotted with Kaleidagraph 4.5.2 (Abelbeck Software, Reading, PA, United States). Each episode of data acquisition was a total of 210 s and included an initial 30 s period used to define the baseline for the drug-evoked responses. After 30 s, drugs were applied, and the following 120 s were defined as the drug response period for analysis. […] The values for the curve fits were generated using the Levenberg-Marquardt algorithm to obtain the best Chi-Square fit to the Hill equation using the Kaleidagraph 4.5.2 plotting program. The errors in the tables are the calculated standard errors of the fit parameters based on the goodness of fit.

α4β2 nAChR = target: T5, α4β2 nAChR (Homo sapiens, UniProt P17787+P43681); assay: Inhibition of control ACh responses by co-application, α4β2 nAChR in oocytes; type: cell-based; conditions: 3 μM compound co-applied with ACh; fraction of control ACh response
T5 construct: expressed in transfected cells; host or cells: Xenopus laevis oocytes
T5 sequence (P43681 29-627 limits assumed): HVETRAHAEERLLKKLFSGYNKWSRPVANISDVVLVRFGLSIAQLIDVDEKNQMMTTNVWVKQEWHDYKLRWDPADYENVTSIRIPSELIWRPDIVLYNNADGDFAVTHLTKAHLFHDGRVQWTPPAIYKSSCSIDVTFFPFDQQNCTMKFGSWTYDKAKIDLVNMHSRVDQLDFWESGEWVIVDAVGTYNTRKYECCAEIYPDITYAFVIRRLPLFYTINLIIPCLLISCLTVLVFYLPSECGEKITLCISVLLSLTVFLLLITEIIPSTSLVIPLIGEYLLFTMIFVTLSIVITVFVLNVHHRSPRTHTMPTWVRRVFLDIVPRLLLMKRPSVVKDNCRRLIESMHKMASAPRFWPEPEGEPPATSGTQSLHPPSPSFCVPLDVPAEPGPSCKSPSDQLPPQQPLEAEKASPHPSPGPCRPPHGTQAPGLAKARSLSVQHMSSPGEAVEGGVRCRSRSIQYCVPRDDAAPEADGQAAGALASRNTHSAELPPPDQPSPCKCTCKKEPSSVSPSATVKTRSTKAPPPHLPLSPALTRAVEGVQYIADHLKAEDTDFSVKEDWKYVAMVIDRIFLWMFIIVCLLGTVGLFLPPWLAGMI
T5 sequence (P17787 26-502): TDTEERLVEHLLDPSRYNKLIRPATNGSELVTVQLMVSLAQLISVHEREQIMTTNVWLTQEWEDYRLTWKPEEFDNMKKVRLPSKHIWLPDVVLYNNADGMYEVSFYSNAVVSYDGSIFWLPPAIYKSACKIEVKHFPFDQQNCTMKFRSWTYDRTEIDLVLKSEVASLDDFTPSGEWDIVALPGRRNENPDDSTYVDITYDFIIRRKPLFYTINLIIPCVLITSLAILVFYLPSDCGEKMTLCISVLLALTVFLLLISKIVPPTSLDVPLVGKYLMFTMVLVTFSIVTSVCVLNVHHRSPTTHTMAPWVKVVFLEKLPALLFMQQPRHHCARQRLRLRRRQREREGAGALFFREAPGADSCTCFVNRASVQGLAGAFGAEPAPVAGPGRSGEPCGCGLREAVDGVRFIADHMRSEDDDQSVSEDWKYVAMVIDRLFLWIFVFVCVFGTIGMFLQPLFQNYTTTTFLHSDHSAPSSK
Experimental: as §5, §2, §3, §6

α7 nAChR [4] = target: T2, α7 nAChR; assay: Two-electrode voltage-clamp, agonist concentration-response, α7 nAChR in Xenopus oocytes; type: cell-based; conditions: for EC50 / α7 Imax: net charge, ± standard error of fit; for α7 Imax: relative to ACh (Imax = 1)
Text: as §1
(§7) Molecular Biology: Plasmid DNAs encoding the human α7 and heteromeric nAChR were obtained from Jon Lindstrom (University of Pennsylvania, Philadelphia, PA). Mouse muscle subunit clones were obtained from Jim Boulter (Salk Institute, La Jolla CA) and Paul Gardner (Dartmouth, Hanover NH). […] Plasmid DNA encoding the human α10 nAChR was obtained from J. Michael McIntosh. Plasmid DNA encoding the human α9 nAChR and the human receptor-associated protein of the synapse (RAPSYN) with codon optimization for expression in Xenopus laevis were obtained from Katrin Richter. […] After linearization and purification of the plasmid DNAs, RNAs were prepared using the mMessage mMachine in vitro RNA transcription kit (Ambion, Austin, TX). […] Oocytes were maintained in Barth's solution containing 0.32 mM Ca(NO3)2 and 0.41 mM CaCl2, and recordings were conducted 2-20 days after injection.
(§8) Electrophysiology: Two-electrode voltage-clamp experiments were conducted using OpusXpress 6000A (Molecular Devices, Union City CA, USA). Both the voltage and current electrodes were filled with 3 M KCl. Oocytes were voltage-clamped at −60 mV at rt.
as §6

α7 nAChR [5] = target: T2, α7 nAChR; assay: α7 responses to drugs co-applied with the PAM PNU-120596 (silent agonism); type: cell-based; conditions: for Response co-applied with PNU-120596, normalized to ACh co-applied with PNU-120596: drug 30 μM + 10 μM PNU-120596, normalized to 30 μM ACh + 10 μM PNU-120596
Text: as §7, §8, §6

α1β1εδ nAChR = target: T6, α1β1εδ nAChR (Mus musculus, UniProt P02716+P04756+P09690+P20782); assay: Inhibition of control ACh responses by co-application, muscle α1β1εδ nAChR in oocytes; type: cell-based; conditions: 3 μM compound co-applied with ACh; fraction of control ACh response
T6 construct: expressed in transfected cells; host or cells: Xenopus laevis oocytes
T6 sequence (P04756 21-457): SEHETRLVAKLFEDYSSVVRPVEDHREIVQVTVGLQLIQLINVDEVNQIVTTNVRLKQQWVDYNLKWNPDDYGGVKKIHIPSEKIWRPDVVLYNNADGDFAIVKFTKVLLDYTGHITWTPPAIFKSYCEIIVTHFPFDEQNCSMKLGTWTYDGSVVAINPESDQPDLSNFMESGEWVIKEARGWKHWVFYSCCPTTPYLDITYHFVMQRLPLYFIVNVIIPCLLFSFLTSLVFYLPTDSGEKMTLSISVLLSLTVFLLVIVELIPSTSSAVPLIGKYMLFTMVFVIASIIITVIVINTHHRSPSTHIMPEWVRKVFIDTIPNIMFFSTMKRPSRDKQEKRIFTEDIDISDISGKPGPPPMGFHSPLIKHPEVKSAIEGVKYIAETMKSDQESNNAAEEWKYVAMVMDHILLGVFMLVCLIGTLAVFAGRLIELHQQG
T6 sequence (P09690 24-501): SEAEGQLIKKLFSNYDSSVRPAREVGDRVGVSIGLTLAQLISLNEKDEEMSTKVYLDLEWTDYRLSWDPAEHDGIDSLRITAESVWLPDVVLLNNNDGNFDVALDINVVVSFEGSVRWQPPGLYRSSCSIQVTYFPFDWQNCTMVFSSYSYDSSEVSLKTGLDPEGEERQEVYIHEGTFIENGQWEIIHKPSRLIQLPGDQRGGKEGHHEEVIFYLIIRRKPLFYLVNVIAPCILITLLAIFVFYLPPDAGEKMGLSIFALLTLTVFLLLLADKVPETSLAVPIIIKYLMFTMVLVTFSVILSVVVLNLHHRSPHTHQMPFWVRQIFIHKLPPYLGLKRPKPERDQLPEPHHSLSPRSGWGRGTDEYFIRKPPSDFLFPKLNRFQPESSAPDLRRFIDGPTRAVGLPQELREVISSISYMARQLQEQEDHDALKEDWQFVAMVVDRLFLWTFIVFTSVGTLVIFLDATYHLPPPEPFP
T6 sequence (P20782 21-493): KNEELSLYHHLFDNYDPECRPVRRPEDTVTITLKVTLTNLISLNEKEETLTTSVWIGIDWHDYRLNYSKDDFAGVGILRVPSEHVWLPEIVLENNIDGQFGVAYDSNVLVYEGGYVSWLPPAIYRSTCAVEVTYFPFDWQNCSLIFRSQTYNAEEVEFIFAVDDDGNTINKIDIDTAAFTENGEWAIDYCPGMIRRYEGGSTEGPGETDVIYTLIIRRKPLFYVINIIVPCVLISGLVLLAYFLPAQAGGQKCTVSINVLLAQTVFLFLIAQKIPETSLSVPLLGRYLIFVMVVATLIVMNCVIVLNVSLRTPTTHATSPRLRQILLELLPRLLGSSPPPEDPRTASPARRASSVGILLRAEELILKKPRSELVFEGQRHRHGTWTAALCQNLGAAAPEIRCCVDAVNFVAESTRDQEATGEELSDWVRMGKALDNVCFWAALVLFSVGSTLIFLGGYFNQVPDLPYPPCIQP
T6 sequence (P02716 25-520): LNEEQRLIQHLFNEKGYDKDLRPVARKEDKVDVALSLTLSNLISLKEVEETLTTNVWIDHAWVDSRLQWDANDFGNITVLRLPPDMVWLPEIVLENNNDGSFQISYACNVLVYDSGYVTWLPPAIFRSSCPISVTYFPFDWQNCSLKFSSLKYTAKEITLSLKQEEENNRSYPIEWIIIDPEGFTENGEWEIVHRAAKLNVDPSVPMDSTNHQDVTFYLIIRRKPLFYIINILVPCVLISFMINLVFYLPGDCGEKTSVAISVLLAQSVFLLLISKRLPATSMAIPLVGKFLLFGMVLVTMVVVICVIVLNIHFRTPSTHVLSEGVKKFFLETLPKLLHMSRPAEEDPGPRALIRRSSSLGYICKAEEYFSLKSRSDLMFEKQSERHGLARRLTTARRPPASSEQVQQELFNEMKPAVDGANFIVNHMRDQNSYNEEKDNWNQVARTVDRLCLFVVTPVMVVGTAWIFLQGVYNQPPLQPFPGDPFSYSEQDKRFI
Experimental: as §5, §2, §3, §6

α9 nAChR [6] = target: T1, α9 nAChR; assay: Two-electrode voltage-clamp, agonist concentration-response, α9 nAChR in Xenopus oocytes; type: cell-based; conditions: for EC50 / α9 Imax: peak currents, ± standard error of fit; for α9 Imax: relative to ACh (Imax = 1)
Text: as §1, §2, §3, §4

α9α10 nAChR [7] = target: T3, α9α10 nAChR; conditions: relative to ACh (Imax = 1); data taken from Papke et al. (2022); cited from earlier work
[8] = 3e vs larger ammonium analogs, 3h relative to 3g

SMILES	Agonist character at α7 (α7 nAChR [2])	EC50 (α9α10 nAChR [3])	α9α10 Imax (α9α10 nAChR [3])	Effect of co-application on the control ACh responses, α3β4 (α3β4 nAChR)	Effect of co-application on the control ACh responses, α4β2 (α4β2 nAChR)	EC50 (α7 nAChR [4])	α7 Imax (α7 nAChR [4])	Response co-applied with PNU-120596, normalized to ACh co-applied with PNU-120596 (α7 nAChR [5])	Effect of co-application on the control ACh responses, α1β1εδ (α1β1εδ nAChR)	EC50 (α9 nAChR [6])	α9 Imax (α9 nAChR [6])	Agonist character / efficacy at α7 (α7 nAChR [4])	Agonist character / efficacy at α9 (α9 nAChR [6])	other results
CC[N+]1(CC)CCN(c2ccc(C(F)(F)F)cc2)CC1 [pCF3-diEPP, reference compound]														Agonist character at α9 (α9 nAChR [1]): partial agonist
CC[N+]1(CC)CCCCC1 [diE-piperidinium, reference compound]	silent agonist													
C[N+]1(C)CCCCC1 [diM-piperidinium, reference compound]	essentially a full agonist													
CCCNC(=O)c1ccc(N2CC[N+](CC)(CC)CC2)cc1.[I-] [Compound 3b, 1,1-diethyl-4-(4-(propylcarbamoyl)phenyl)piperazin-1-ium iodide]		11 ± 6 µM	0.79 ± 0.13	0.650 ± 0.039	0.946 ± 0.032	280 ± 240 µM	0.38 ± 0.09 and 0.38	0.19	0.709 ± 0.086	9 ± 6 µM	1.13 ± 0.15			
CC[N+]1(CC)CCN(c2ccc(C(=O)N3CCCC3)cc2)CC1.[I-] [Compound 3a, 1,1-diethyl-4-(4-(pyrrolidine-1-carbonyl)phenyl)piperazin-1-ium iodide]		15 ± 3.1 µM	0.56 ± 0.04	0.849 ± 0.034	0.919 ± 0.022	500 ± 500 µM	0.06 ± 0.11 and 0.06	0.01	0.541 ± 0.048	45 ± 22 µM	0.69 ± 0.09	lost agonism	moderate efficacy	
CC[N+]1(CC)CCN(c2ccc(C(=O)Nc3cccc(C)n3)cc2)CC1.[I-] [Compound 2, 1,1-diethyl-4-(4-((6-methylpyridin-2-yl)carbamoyl)phenyl)piperazin-1-ium iodide]	partial agonists											partial agonist	full agonist	EC50 (α7 nAChR [2]; data taken from Papke et al. (2022)): 4.3 to 6.4 µM; α7 Imax (α7 nAChR [2]; relative to ACh (Imax = 1), data taken from Papke et al. (2022)): 0.40-0.57; α9α10 Imax (α9α10 nAChR [7]): 0.90 ± 0.02; Agonist character at α9 (α9 nAChR [1]): full α9 agonist
CC[N+]1(CC)CCN(c2ccc(C(=O)Nc3cccc(C)c3)cc2)CC1.[I-] [Compound 3d, 1,1-diethyl-4-(4-(m-tolylcarbamoyl)phenyl)piperazin-1-ium iodide]		0.61 ± 0.08 µM	1.12 ± 0.03	1.039 ± 0.015	0.807 ± 0.048	1.3 ± 0.1 µM	0.60 ± 0.02 and 0.6	0.17	0.555 ± 0.060	1.28 ± 0.62 µM	1.25 ± 0.14	partial agonists		
CC[N+]1(CC)CCN(c2ccc(-n3cccn3)cc2)CC1.[I-] [Compound 3h, 4-(4-(1H-pyrazol-1-yl)phenyl)-1,1-diethylpiperazin-1-ium iodide]		2 ± 0.8 µM	0.59 ± 0.05	0.736 ± 0.034	0.913 ± 0.026	18 ± 0.6 µM	0.088 ± 0.001 and 0.088	0.17	0.590 ± 0.062	1.49 ± 0.24 µM	1.01 ± 0.04	very weak partial agonists	full agonist	Agonist character / efficacy at α9α10 (α9α10 nAChR [3]): partial agonist; Fold loss of potency at α9α10 relative to comparator compound (α9α10 nAChR [3]; [8]): 3 fold; Fold loss of potency at α7 relative to comparator compound (α7 nAChR [4]; 3h compared with 3g): 10 fold; Response co-applied with PNU-120596 relative to the ACh controls (α7 nAChR [5]; 30 μM compound + 10 μM PNU-120596, relative to ACh alone controls): approximately 4 times; Fold loss of potency at α9 relative to comparator compound (α9 nAChR [6]; [8]): 3 fold
